This is an account of results in patent publication US11345957B2, “Methods of treating glioblastoma in a subject informed by exosomal RNA signatures” (Exosome Diagnostics, Inc., priority 2017, dated 2022).

The assay deals with patients diagnosed with glioblastoma mutliforme (GBM). In words: Response of GBM patients to Dacomitinib treatment. Type of assay: in vivo, human. An excerpt:
Serum samples were collected from 14 patients diagnosed with glioblastoma mutliforme (GBM) before the administration of Dacomitinib (pre-treatment samples) and 1 month after the initiation of Dacomitinib treatment (post-treatment samples). Of the 14 patients, 7 were deemed to be “responders” to the drug and stayed on the drug for more than 6 months.

As to `COc1cc2ncnc(Nc3ccc(F)c(Cl)c3)c2cc1NC(=O)/C=C/CN1CCCCC1` [Dacomitinib], where the note is “7 responders of 14 GBM patients”, the “time responders stayed on the drug” value is listed as “more than 6 months”. Further, the “patients deemed to be "responders" to the drug” value (of the 14 patients diagnosed with GBM) turned out to be 7.
